Laboratory results taken from a melting point compilation (Tetko et al.; mined from patent text by program, amines drawn as free bases though some values may be those of a salt).

melting point	Structure (SMILES)
142 to 143 °C	CCC(=O)N[C@@H](C)C(=O)N1CCC[C@H]1C(=O)NC1CCCCCCC1
77 to 78 °C	O=C1CCCc2ccc(OCc3cccc(Cl)c3)cc21
128 °C	CNc1nc(NCc2ccc(NC(=O)C3CCN(Cc4ccccc4)CC3)cc2)c2ccc(C)cc2n1
220 to 222 °C	COc1ccc(C=C2NC(=O)NC2=O)cc1OC1CCCC1
> 280 °C	NNc1nc(Cl)nc2cccc(F)c12
137 to 140 °C	COc1ccc(C(=O)Nc2ccccc2)cc1NCc1cccc(F)c1
74.5 to 75 °C	O=C(CC(O)(c1cc(Cl)cc(Cl)c1)C(F)(F)F)c1ccc(Br)c2ccccc12 (stereo not drawn)
129 to 133 °C	COCCOCCC1CCCCCc2c1oc(=O)c(C(c1ccccc1)C1CC1)c2O (stereo not drawn)
313 to 314 °C	N#Cc1ccc(-c2cnc3cnc(-c4ccc(O)cc4)nc3c2)cc1
156 to 158 °C	CCOCc1nc2c(N)nc(C)c(C)c2n1CCCC(=O)N1CCOCC1
267 to 268 °C	O=C(NCc1cocn1)c1cc(-n2cnn(Cc3ccc(F)cc3)c2=O)n[nH]1
195 to 197 °C	CC(C)OCc1cc(O)cc2cc(-c3ccc(O)cc3)oc12
158 °C	CCCc1cc(O)nc(SC)n1
180 °C	CC1=NN(C)c2nc(C)c(CCCl)c(=O)n2C1
120 to 121 °C	CCOC(=O)C1=C(COCCO)NC(C)=C(C(=O)OC)C1c1cccc(Cl)c1Cl (stereo not drawn)
187 to 188 °C	Nc1ncnc2c1c(-c1ccc(Oc3ccccc3)cc1)nn2C1CCOCC1
102 °C	COC(=O)c1ccc(O)c([C@H](CCN(C(C)C)C(C)C)c2ccccc2)c1
235 to 237 °C	O=[N+]([O-])c1ccc2nc(Cl)[nH]c2c1
81 to 82 °C	COc1ccc(C)c(NCc2ccccc2)c1
137 °C	COC(=O)[C@@H]1C[C@H](C(=O)OC(C)(C)C)N(C(=O)CNC(=O)OC(C)(C)C)[C@@H]1c1ccccc1 (racemic)
205 to 207 °C	NC(=S)NN=Cc1ccc(N)cn1
214 °C	O=C(C=C1C(=O)N(c2ccccc2)C(=O)N1c1ccccc1)Nc1ccccc1
208 to 210 °C	O=C(c1ccc(O)cc1)c1ccc(O)c(Cl)c1Cl
> 250 °C	CNC(=O)c1ccccc1Nc1nc(Nc2cc3c(cc2OC)CC(=O)NCC3)ncc1Cl

melting point	Structure (SMILES)
92 °C	O=C(C=Cc1ccc(Cl)cc1)C1(Cl)CC1
323 to 326 °C	O=C(O)c1ccc2c(c1)C=C(n1ccnc1)CC2
170 to 173 °C	Cc1ncc2cccc(CCCCCC(=O)O)n12
176 to 177 °C	COC(=O)c1cc2ccc(O)cc2o1
200 to 202 °C	CC(=O)N1N=C2C(=Cc3cccc(C(F)(F)F)c3)CS(=O)(=O)CC2C1c1cccc(C(F)(F)F)c1 (stereo not drawn)
55 to 64 °C	C[C@@H]1[C@@H](NC(=O)OCc2ccccc2)CN1S(=O)(=O)O
90 °C	CCOC(=O)c1cc(CC)sc1Nc1ccc(F)cc1[N+](=O)[O-]
205 to 206 °C	Oc1c2c(nn1-c1ccccn1)CCc1cc(-c3ccc4c(c3)OCO4)ccc1-2
159 °C	Cc1c(CC(=O)OC(OC(=O)Cc2cc(C(C)(C)C)c(O)c(C)c2C)(OC(=O)Cc2cc(C(C)(C)C)c(O)c(C)c2C)C(C)(C)C)cc(C(C)(C)C)c(O)c1C
194 °C	O=C(Cc1c[nH]c2ccccc12)NCCN1CCC(Nc2nc3ccccc3n2Cc2ccc(F)cc2)CC1
73 to 74 °C	CC(C)c1nc(CCOC2=CCCCCCC2)n(C)c1Sc1cc(Cl)cc(Cl)c1
166 to 167 °C	CC(C)(C)OC(=O)N1CCN(CCCC2(C)Cn3cc([N+](=O)[O-])nc3O2)CC1 (stereo not drawn)
144 to 145 °C	O=C(c1cccnc1)c1cc2cc(Br)ccc2o1
125 to 127 °C	CCN=C1SC2CCOc3ccc([N+](=O)[O-])cc3C2(O)N1CC (stereo not drawn)
174 to 176 °C	O=C(Nc1cc2c(s1)-c1ccccc1OC2C1=CCCC=C1)C(F)(F)F (stereo not drawn)
184 °C	CC1(C)OC(=C(C#N)C#N)C(C#N)=C1c1ccc(N=[N+]=[N-])cc1
85 to 87 °C	CN(C)CCCOc1ccc(Nc2nccc(-c3cccnc3)n2)cc1
135 to 136 °C	CCOC(=O)C(NC(C)=O)(C(=O)OCC)[C@@H]1CC(=O)C[C@H]1NC(=O)OC(C)(C)C (relative stereo)
107 to 109 °C	C=CCNc1nc(NC23CC4CC(CC(C4)C2)C3)c2scc(C)c2n1
119 °C	CCOC(=O)NC(=O)n1sc(OCC)nc1=O
171 to 172 °C	CCc1nn(C2CCCC2)c2cc(C(=O)Nc3c(Cl)ncnc3Cl)ccc12
121 to 123 °C	c1cc(-c2csnn2)ccn1
130 to 132 °C	Cc1ccc(Cl)cc1N1CN(C(C)(C)C)CN(C)C1=S
214 to 216 °C	O=c1[nH]c(=O)n(C2OC(CO)C(O)C2F)cc1Br (stereo not drawn)

melting point	Structure (SMILES)
125 to 126 °C	Cc1ccc(Nc2nc3ccccc3c3[nH]c(C4CCCC4)nc23)cc1
61 °C	CC(C)(CC(=O)O)C(Cl)CC(Cl)(Cl)C(F)(F)F (stereo not drawn)
65 to 68 °C	COC(=O)C1=C(C)NC(C)=C(C(=O)OCCN2CCN(c3cccc(Cl)c3)CC2)C1c1cccc([N+](=O)[O-])c1 (stereo not drawn)
153 to 155 °C	Cc1cccc(NCC2=NCCN2C(=O)Nc2ccc(Cl)cc2)c1C
84.5 to 85.5 °C	CCCCCCCCCCCCCCCCSCC(CNS(=O)(=O)CCCCl)OC(=O)NC (stereo not drawn)
74 to 77 °C	CCCCc1nc(-n2cccc2)c(C(=O)OCC)[nH]1
289 to 290 °C	O=S1(=O)CCN2C=CC=C(c3ccc(Oc4ccc(O)cc4)cc3)C2=N1
117 to 119 °C	CC(C)(C)OC(=O)N1CC(=NO)C2(CC2)C1
169 to 171 °C	O=C1N(Cc2ccc3nonc3c2)c2ccccc2C12COc1cc3c(cc12)CCO3 (stereo not drawn)
115 to 120 °C	COCON=C(C(C)=O)C(=O)OC
202 °C	Cc1nc(C)c(Cl)c(NCc2ccc(O)cc2)n1
162 °C	Cc1cc(-c2ccccc2)nnc1NN
87 to 90 °C	O=C(O)C1=COCC(C(=O)O)=C1
54 to 56.5 °C	CC(S)CNC(=O)OCc1ccc([N+](=O)[O-])cc1 (stereo not drawn)
143 to 146 °C	Nc1nc(Cl)cc(NCCO)n1
159 to 160 °C	CN(C)c1ccc(C2OC(=O)c3cc(N(C)C)ccc32)c(Cl)c1 (stereo not drawn)
84 to 85 °C	COc1ccc(OC2CN(S(=O)(=O)c3ccc(C)cc3)CCc3ccccc32)cc1 (stereo not drawn)
178 to 179 °C	O=C(Nc1ccc(-n2nc(C(F)(F)F)cc2C(F)(F)F)cc1)c1ccc(F)cc1C(F)(F)F
144 to 147 °C	CNC(=O)Nc1cc(C2(C)CC2)on1
93.5 to 94.5 °C	Cc1ccc(S(=O)(=O)N(C)c2ccc(F)cc2[N+](=O)[O-])cc1
204 to 205 °C	COC(=O)Nc1nccc(Oc2ccc3c(C(=O)Nc4ccc(F)c(C(F)(F)F)c4)cccc3c2)n1
110 to 111 °C	Cc1ccccc1Oc1cccc2c1OC(=O)C2

Structure (SMILES)	melting point
CC(C)CCN1C(=O)C(NC(=O)Nc2cccc(-c3nnn[nH]3)c2)C(=O)N(c2ccccc2)c2ccccc21 (stereo not drawn)	220 to 222 °C
O=C(Nc1ccc(-c2nc(-c3ccco3)no2)c(Cl)c1)Oc1ccccc1	184 to 186 °C
COc1cc2c3c(c(=O)n(C)c2cc1OC)CNCC3	178 to 179 °C
